Results as given in ChEMBL document CHEMBL5154722, “Identification of new potent anticancer derivatives through simplifying the core structure and modification on their 14- hydroxyl group from oridonin” (Eur J Med Chem, 2022).
Calls of active or inactive are those of the source. The rule behind the calls is not given here.

Tests used:
SW480 = test: Antiproliferative activity against human SW480 cells assessed as reduction in cell viability incubated for 72 hrs by MTT assay; format: functional, cell-based; conditions: SW480, 72 h
[1] = Selectivity index, ratio of IC50 for human L02 cells to IC50 for human SMMC-7721 cells; format: toxicity; conditions: L02 cells and SMMC-7721 cells, read-out: Ratio IC50
H22 [2] = test: Antiproliferative activity against mouse H22 cells assessed as reduction in cell viability incubated for 72 hrs by MTT assay; format: functional, cell-based; conditions: H22, 72 h
MDA-MB-231 [3] = test: Antiproliferative activity against human MDA-MB-231 cells assessed as reduction in cell viability incubated for 72 hrs by MTT assay; format: functional, cell-based; conditions: MDA-MB-231, 72 h
SMMC-7721 [4] = test: Antiproliferative activity against human […] cells assessed as reduction in cell viability incubated for 72 hrs by MTT assay; format: functional, cell-based; conditions: SMMC-7721, 72 h
MGC-803 = test: Antiproliferative activity against human MGC-803 cells assessed as reduction in cell viability incubated for 72 hrs by MTT assay; format: functional, cell-based; conditions: MGC-803, 72 h
[5] = Antiproliferative activity against human U-87 MG cells assessed as reduction in cell viability incubated for 72 hrs by MTT assay; format: functional, cell-based, U-87MG ATCC
HeLa = test: Antiproliferative activity against human HeLa cells assessed as reduction in cell viability incubated for 72 hrs by MTT assay; format: functional, cell-based
MCF7 [6] = test: Antiproliferative activity against human MCF7 cells assessed as reduction in cell viability incubated for 72 hrs by MTT assay; format: functional, cell-based; conditions: MCF7, 72 h
[7] = Cytotoxicity against human L02 cells assessed as reduction in cell viability incubated for 72 hrs by MTT assay; format: toxicity, cell-based
SMMC-7721 [8] = test: Potency index, ratio of IC50 for oridonin to IC50 for test compound for antiproliferative activity against SMMC-7721 cells; format: functional, Homo sapiens
MDA-MB-231 [9] = test: Potency index, ratio of IC50 for oridonin to IC50 for test compound for antiproliferative activity against MDA-MB-231 cells; format: functional, Homo sapiens
K562 [10] = test: Antiproliferative activity against human K562 cells assessed as reduction in cell viability incubated for 72 hrs by MTT assay; format: functional, cell-based; conditions: K562, 72 h
MCF7 [11] = test: Potency index, ratio of IC50 for oridonin to IC50 for test compound for antiproliferative activity against MCF7 cells; format: functional, Homo sapiens
K562 [12] = test: Potency index, ratio of IC50 for oridonin to IC50 for test compound for antiproliferative activity against K562 cells; format: functional, Homo sapiens
H22 [13] = test: Antitumor activity against mouse H22 cells allografted in ICR mouse assessed as reduction in tumor volume at 20 mg/kg, iv administered once a day for 21 days after 7 days of tumor implantation measured every two days; format: functional, organism-based; conditions: time 21.0 day
H22 [14] = test: Antitumor activity against mouse H22 cells allografted in ICR mouse assessed as reduction in tumor weight at 20 mg/kg, iv administered once a day for 21 days after 7 days of tumor implantation; format: functional; set-up: scale not given: the % may be the effect or the level left; conditions: time 21 day
[15] = Toxicity in ICR mouse allografted with mouse H22 cells assessed as change in body weight at 20 mg/kg, iv administered once a day for 21 days after 7 days of tumor implantation measured every two days; format: organism-based; conditions: in vivo, 504 h, time 21 day
H22 [16] = test: Antitumor activity against mouse H22 cells allografted in ICR mouse assessed as reduction in tumor weight at 8 mg/kg, iv administered every two days for 21 days after 7 days of tumor implantation; format: functional; set-up: scale not given: the % may be the effect or the level left; conditions: time 21 day
[17] = Toxicity in ICR mouse allografted with mouse H22 cells assessed as reduction in body weight at 8 mg/kg, iv administered every two days for 21 days after 7 days of tumor implantation measured every two days; format: organism-based; conditions: in vivo, 504 h, time 21 day

Structure (SMILES) | IC50 (SW480) | selectivity ratio [1] | IC50 (H22 [2]) | IC50 (MDA-MB-231 [3]) | IC50 (SMMC-7721 [4]) | IC50 (MGC-803) | IC50 [5] | IC50 (HeLa) | IC50 (MCF7 [6]) | IC50 at 72 h [7] | Ratio IC50 (SMMC-7721 [8]) | Ratio IC50 (MDA-MB-231 [9]) | IC50 (K562 [10]) | Ratio IC50 (MCF7 [11]) | Ratio IC50 (K562 [12]) | Activity (H22 [13]) | Activity (H22 [14]) | Activity [15] | Activity (H22 [16]) | Activity [17]
C=C1C(=O)[C@]23[C@H](O)[C@H]1CC[C@H]2[C@@]12CO[C@]3(O)[C@@H](O)[C@@H]1C(C)(C)CC[C@@H]2O [ORIDONIN] | 11600 nM | 2.73 | 4880 nM | 11600 nM | 12600 nM | 15100 nM | 14000 nM | 17300 nM | 11100 nM | 34300 nM |  |  |  |  |  |  |  |  |  | 
C=C1C(=O)[C@@]23C(=O)C[C@@H]4C(C)(C)CCC[C@@]4(COC(C)=O)[C@@H]2CC[C@@H]1[C@H]3OC(C)=O |  |  |  | 1670 nM | 2090 nM |  |  |  | 1300 nM |  | 6.2 | 6.9 | 990 nM | 8.5 | 4 |  |  |  |  | 
C=C1C(=O)[C@]23[C@H](OC(=O)/C=C/c4ccncc4)[C@H]1CC[C@H]2[C@]12C=CCC(C)(C)[C@H]1[C@H](O)[C@@]3(O)OC2 | 1110 nM | 17.7 | 360 nM | 640 nM | 350 nM | 1150 nM | 1160 nM | 970 nM | 1310 nM | 6230 nM |  |  | 210 nM |  |  | Active | 56.76% | Non-Toxic |  | 
C=C1C(=O)[C@@]23C(=O)[C@@H](OC(C)=O)[C@@H]4C(C)(C)CC=C[C@@]4(COC(C)=O)[C@@H]2CC[C@@H]1[C@H]3OC(C)=O |  |  |  | 3140 nM | 2920 nM |  |  |  | 3570 nM |  |  |  | 1670 nM |  |  |  |  |  |  | 
C=C1C(=O)[C@]23[C@H](O)[C@H]1CC[C@H]2[C@]12C=CCC(C)(C)[C@H]1[C@H](O)[C@@]3(O)OC2 |  |  |  | 1880 nM | 3760 nM |  |  |  | 3500 nM |  |  |  | 2040 nM |  |  |  |  |  |  | 
C=C1C(=O)[C@]23[C@H](OC(=O)/C=C/c4ccncc4)[C@H]1CC[C@H]2[C@]12CCCC(C)(C)[C@H]1C[C@@]3(O)OC2 | 800 nM | 6.79 | 780 nM | 720 nM | 770 nM | 960 nM | 900 nM | 940 nM | 710 nM | 5240 nM |  |  | 340 nM |  |  | Active | 52.34% | Non-Toxic |  | 
CC(=O)O[C@H]1C(=O)[C@@]2(C)[C@H]([C@H](OC(=O)c3ccccc3)[C@]3(O)C[C@H](OC(=O)[C@H](O)[C@@H](NC(=O)c4ccccc4)c4ccccc4)C(C)=C1C3(C)C)[C@]1(OC(C)=O)CO[C@@H]1C[C@@H]2O [PACLITAXEL] |  |  |  |  |  |  |  |  |  |  |  |  |  |  |  |  |  |  | 90.39% | Toxic
